Test results from US20220313698A1, “MODULATORS OF CYSTIC FIBROSIS TRANSMEMBRANE CONDUCTANCE REGULATOR” (Vertex Pharmaceuticals Incorporated, priority 2019, published 2022).

Molecular target: CFTR-mediated chloride transport (Homo sapiens, UniProt P13569)
Assay: Corrector Assay A - membrane potential dye assay (enteroid cells)
Details: for Corrector Assay A % activity: % of chloride transport of triple combination control (1 μM (14S)-dispiro macrocycle + 3 μM tezacaftor + 300 nM ivacaftor); for EC50: read-out: Corrector Assay A EC50, human intestinal enteroid cells, 18-24 h incubation, acute 10 μM forskolin + 300 nM ivacaftor

| Compound | Corrector Assay A % activity | EC50 [nM] |
| --- | --- | --- |
| CC(C)CN1c2cccc(n2)S(=O)(=O)NC(=O)c2ccc(C(C)(C)C)nc2N2C[C@@H](CC[C@H]1c1ccccc1)CC2(C)C (single isomer, unassigned) [Compound 271] | + (+ is <30%) |  |
| CC(C)(C)c1ccc2c(n1)N1C[C@@H](CC[C@H](c3cccc(C(N)=O)n3)Nc3cccc(n3)S(=O)(=O)NC2=O)CC1(C)C [Compound 70, 6-[(14S,17R)-8-tert-butyl-12,12-dimethyl-2,2,4-trioxo-2λ^6-thia-3,9,11,18,23-pentaazatetracyclo[17.3.1.111,14.05,10]tetracosa-1(22),5,7,9,19(23),20-hexaen-17-yl]pyridine-2-carboxamide] | ++ (++ is 30-60%) | < 1000 |
| CC1(C)C[C@@H]2CC[C@H](c3ccccn3)Nc3cccc(n3)S(=O)(=O)NC(=O)c3ccc(-c4cccc(OCC5CCC5)n4)nc3N1C2 [Compound 313, (14S,17R)-8-[6-(cyclobutylmethoxy)pyridin-2-yl]-12,12-dimethyl-17-(pyridin-2-yl)-2λ^6-thia-3,9,11,18,23-pentaazatetracyclo[17.3.1.111,14.05,10]tetracosa-1(22),5,7,9,19(23),20-hexaene-2,2,4-trione] | +++ (+++ is >60%) | < 1000 |
| CC(C)(C)c1ccc2c(n1)N1C[C@@H](CC[C@@H](c3ccncn3)Nc3cccc(n3)S(=O)(=O)NC2=O)CC1(C)C (single isomer, unassigned) [Compound 216] | + (+ is <30%) |  |
| CC(C)(C)c1ccc2c(n1)N1C[C@@H](CCC(c3ccc(C4CNC4)cn3)Nc3cccc(n3)S(=O)(=O)NC2=O)CC1(C)C (some centres unmarked) [Compound 166] | +++ (+++ is >60%) | < 1000 |
| CC(C)CN1c2cccc(n2)S(=O)(=O)NC(=O)c2ccc(C(C)(C)C)nc2N2C[C@@H](CCC1c1ccccc1)CC2(C)C (single isomer, unassigned) [Compound 270] | + (+ is <30%) |  |
| CC1CCC2CN(c3nc(C(C)(C)C)ccc3C(=O)NS(=O)(=O)c3ccn1n3)C(C)(C)C2 (single isomer, unassigned) [Compound 272] | +++ (+++ is >60%) | < 1000 |
| CC(=O)NCc1ccc(C2CC[C@@H]3CN(c4nc(C(C)(C)C)ccc4C(=O)NS(=O)(=O)c4cccc(n4)N2)C(C)(C)C3)nc1 (some centres unmarked) [Compound 71] | ++ (++ is 30-60%) | < 1000 |
| CC(C)(C)c1ccc2c(n1)N1C[C@@H](CCC(C(C)(C)O)Nc3cccc(n3)S(=O)(=O)NC2=O)CC1(C)C (stereo partly drawn) [Compound 12, (14S)-8-tert-Butyl-17-(2-hydroxypropan-2-yl)-12,12-dimethyl-2λ^6-thia-3,9,11,18,23-pentaazatetracyclo[17.3.1.111,14.05,10]tetracosa-1(23),5(10),6,8,19,21-hexaene-2,2,4-trione] | +++ (+++ is >60%) | < 1000 |
| Cc1cccc(C)c1[C@H]1CC[C@@H]2CN(c3nc(C(C)(C)C)ccc3C(=O)NS(=O)(=O)c3cccc(n3)N1)C(C)(C)C2 (single isomer, unassigned) [Compound 242] | + (+ is <30%) |  |
| CC(C)COc1cc(F)cc(-c2ccc3c(n2)N2C[C@@H](CCC(c4ccccn4)Nc4cccc(n4)S(=O)(=O)NC3=O)CC2(C)C)c1 (single isomer, unassigned) [Compound 351] | +++ (+++ is >60%) | < 1000 |
| CC1(C)C[C@@H]2CC[C@H](c3ccccn3)Nc3cccc(n3)S(=O)(=O)NC(=O)c3ccc(-c4c(F)cccc4Cl)nc3N1C2 [Compound 343] | +++ (+++ is >60%) | < 1000 |
| COC(=O)CCc1ccc(C2CC[C@@H]3CN(c4nc(C(C)(C)C)ccc4C(=O)NS(=O)(=O)c4cccc(n4)N2)C(C)(C)C3)nc1 (some centres unmarked) [Compound 90] | ++ (++ is 30-60%) | < 1000 |
| CCOc1cccc(-c2ccc3c(n2)N2C[C@@H](CC[C@H](c4ccccn4)Nc4cccc(n4)S(=O)(=O)NC3=O)CC2(C)C)n1 [Compound 316] | +++ (+++ is >60%) | < 1000 |
| CN(C)CCNc1cccc([C@H]2CC[C@@H]3CN(c4nc(C(C)(C)C)ccc4C(=O)NS(=O)(=O)c4cccc(n4)N2)C(C)(C)C3)n1 [Compound 189] | ++ (++ is 30-60%) | < 1000 |
| CC(C)(C)c1ccc2c(n1)N1CC(CCN(c3ccccc3)C(=O)c3cccc(c3)S(=O)(=O)NC2=O)CC1(C)C (single isomer, unassigned) [Compound 266, 8-tert-butyl-12,12-dimethyl-17-phenyl-2λ^6-thia-3,9,11,17-tetraazatetracyclo[17.3.1.111,14.05,10]tetracosa-1(22),5,7,9,19(23),20-hexaene-2,2,4,18-tetrone] | + (+ is <30%) |  |

Second part, the compound after the results:

| Corrector Assay A % activity | EC50 [nM] | Compound |
| --- | --- | --- |
| ++ (++ is 30-60%) | < 1000 | CC(C)(C)c1ccc2c(n1)N1C[C@@H](CC[C@H](c3cccc(C(F)(F)F)n3)Nc3cccc(n3)S(=O)(=O)NC2=O)CC1(C)C (single isomer, unassigned) [Compound 94] |
| +++ (+++ is >60%) | < 1000 | COc1cccc(-c2ccc3c(n2)N2C[C@@H](CC[C@@H](c4ccccn4)Nc4cccc(n4)S(=O)(=O)NC3=O)CC2(C)C)n1 [Compound 338] |
| ++ (++ is 30-60%) | < 1000 | COC(=O)NCc1cccc([C@H]2CC[C@@H]3CN(c4nc(C(C)(C)C)ccc4C(=O)NS(=O)(=O)c4cccc(n4)N2)C(C)(C)C3)n1 [Compound 101, Methyl N-({6-[(14S,17R)-8-tert-butyl-12,12-dimethyl-2,2,4-trioxo-2λ^6-thia-3,9,11,18,23-pentaazatetracyclo[17.3.1.111,14.05,10]tetracosa-1(22),5,7,9,19(23),20-hexaen-17-yl]pyridin-2-yl}methyl)carbamate] |
| ++ (++ is 30-60%) | < 1000 | CC(C)(C)c1ccc2c(n1)N1C[C@@H](CCC(C3CCN(c4ncccn4)CC3)Nc3cccc(n3)S(=O)(=O)NC2=O)CC1(C)C (stereo partly drawn) [Compound 218, (14S)-8-tert-butyl-12,12-dimethyl-17-[1-(pyrimidin-2-yl)piperidin-4-yl]-2λ^6-thia-3,9,11,18,23-pentaazatetracyclo[17.3.1.111,14.05,10]tetracosa-1(23),5(10),6,8,19,21-hexaene-2,2,4-trione] |
| +++ (+++ is >60%) | < 1000 | CC(C)(C)c1ccc2c(n1)N1C[C@@H](CC[C@@H](c3cc(C4CCOCC4)ccn3)Nc3cccc(n3)S(=O)(=O)NC2=O)CC1(C)C (single isomer, unassigned) [Compound 121] |
| ++ (++ is 30-60%) | < 1000 | CC(C)(C)c1ccc2c(n1)N1C[C@@H](CCC(c3ccc(CN)cn3)Nc3cccc(n3)S(=O)(=O)NC2=O)CC1(C)C (single isomer, unassigned) [Compound 197] |
| ++ (++ is 30-60%) | < 1000 | CC(C)(C)c1ccc2c(n1)N1C[C@@H](CC[C@@H](C3CCCCC3)Nc3cccc(n3)S(=O)(=O)NC2=O)CC1(C)C (single isomer, unassigned) [Compound 234] |
| ++ (++ is 30-60%) | < 1000 | CC(C)(C)c1ccc2c(n1)N1C[C@@H](CCC(c3cc(C(N)=O)ccn3)Nc3cccc(n3)S(=O)(=O)NC2=O)CC1(C)C (single isomer, unassigned) [Compound 82] |
| +++ (+++ is >60%) | < 1000 | CC(C)(C)OC(=O)NCc1ccnc(C2CC[C@@H]3CN(c4nc(C(C)(C)C)ccc4C(=O)NS(=O)(=O)c4cccc(n4)N2)C(C)(C)C3)c1 (single isomer, unassigned) [Compound 120] |
| ++ (++ is 30-60%) | < 1000 | CC(C)O[C@H]1C[C@@H](Oc2ccc3c(n2)N2C[C@@H](CC[C@@H](c4ccccn4)Nc4cccc(n4)S(=O)(=O)NC3=O)CC2(C)C)C1 [Compound 162] |
| +++ (+++ is >60%) | < 1000 | CC(C)(C)c1ccc2c(n1)N1C[C@@H](CC[C@H](c3cccc(N4CCOCC4)n3)Nc3cccc(n3)S(=O)(=O)NC2=O)CC1(C)C [Compound 191] |
| +++ (+++ is >60%) | < 1000 | CC(C)(C)c1ccc2c(n1)N1C[C@@H](CCC(c3ccc(N4CCOCC4)cn3)Nc3cccc(n3)S(=O)(=O)NC2=O)CC1(C)C (some centres unmarked) [Compound 198] |
| +++ (+++ is >60%) | < 1000 | CC(C)(C)NC(=O)CCCC1CC[C@@H]2CN(c3nc(C(C)(C)C)ccc3C(=O)NS(=O)(=O)c3cccc(n3)N1)C(C)(C)C2 (stereo partly drawn) [Compound 16, N-tert-butyl-4-[(14S)-8-tert-butyl-12,12-dimethyl-2,2,4-trioxo-2λ^6-thia-3,9,11,18,23-pentaazatetracyclo[17.3.1.111,14.05,10]tetracosa-1(23),5(10),6,8,19,21-hexaen-17-yl]butanamide] |
| ++ (++ is 30-60%) | < 1000 | CC(C)(C)c1ccc2c(n1)N1C[C@@H](CC[C@@H](c3cccc(C4CNC4)n3)Nc3cccc(n3)S(=O)(=O)NC2=O)CC1(C)C [Compound 151] |
| ++ (++ is 30-60%) | < 1000 | CC(=O)NCc1ccc(C2CC[C@@H]3CN(c4nc(C(C)(C)C)ccc4C(=O)NS(=O)(=O)c4cccc(n4)N2)C(C)(C)C3)nc1 (stereo partly drawn) [Compound 72, N-({6-[(14S)-8-tert-Butyl-12,12-dimethyl-2,2,4-trioxo-2λ^6-thia-3,9,11,18,23-pentaazatetracyclo[17.3.1.111,14.05,10]tetracosa-1(23),5(10),6,8,19,21-hexaen-17-yl]pyridin-3-yl}methyl)acetamide] |
| +++ (+++ is >60%) | < 1000 | CC(C)(C)c1ccc2c(n1)N1C[C@@H](CCC(c3ccc(-c4cn[nH]c4)cn3)Nc3cccc(n3)S(=O)(=O)NC2=O)CC1(C)C (some centres unmarked) [Compound 136] |
